Consider 19 molecules from PubChem BioAssay (NCI).

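Tested at 5 concentrations; 48 h exposure; 96-well plates; endpoints linearly interpolated, else capped at highest concentration. Definition used: TGI = concentration required for complete inhibition of growth.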 Where a SMILES comes first, the peptide text is derived from it. [ ]: non-standard residue; d: D form. The star is where a group is joined. ξ: configuration not given here. NMeF = CN[CH](Cc1ccccc1)C(=O)O; ξNMe2Val = CC(C)C(C(=O)*)N(C)C; NMeV = CN[CH](C(=O)O)C(C)C; ξNMeV = CNC(C(=O)O)C(C)C; Boc = CC(C)(C)OC(=O)*; OBn = c1ccc(CO*)cc1; OtBu = CC(C)(C)O* Bounds are passed on as bounds.

Test systems include SNB-19 CNS; NCI-H522 lung; OVCAR-8 ovarian; SW-620 colon; EKVX NSCLC; HT29 colon; SN12C renal; U251 CNS; UO-31 renal; KM12 colon.
What all share (test): NCI-60 cell line screen, 48 h

As to `COC(=O)C(CCC1(C)OCCO1)=[N+]=[N-]`, the TGI in the test on SNB-19 CNS, in the test on NCI-H522 lung, in the test with OVCAR-8 ovarian, in the test on SW-620 colon, with EKVX NSCLC and with HT29 colon was over 100 µM each time. Besides, the TGI in the test on SN12C renal, in the test with U251 CNS, in the test with UO-31 renal and in the test with KM12 colon was over 100 µM in each case.

On to `CCCCOC(=O)NC(=O)c1cn(CCCOC(=O)CCCCCCCCC(=O)OCCCn2cc(C(=O)NC(=O)OCCCC)c(=O)n(C)c2=O)c(=O)n(C)c1=O`, for which the TGI in the test with SNB-19 CNS, in the test on NCI-H522 lung, in the test on OVCAR-8 ovarian, in the test with SW-620 colon, with EKVX NSCLC and in the test on HT29 colon was over 100 µM in each case. Moreover, the TGI in the test with SN12C renal, in the test on U251 CNS, in the test on UO-31 renal and with KM12 colon was over 100 µM in each case.

Take `O=C1[C@@H]2C(c3ccccc3[N+](=O)[O-])=NO[C@@H]2C(=O)N1c1ccc(Cc2ccc(N3C(=O)[C@H]4C(c5ccccc5[N+](=O)[O-])=NO[C@H]4C3=O)cc2)cc1`: the TGI in the test with SNB-19 CNS, in the test on NCI-H522 lung, in the test with OVCAR-8 ovarian, in the test with SW-620 colon, in the test on EKVX NSCLC and in the test with HT29 colon was over 100 µM throughout. Further, the TGI with SN12C renal, with U251 CNS, in the test on UO-31 renal and in the test on KM12 colon was over 100 µM throughout.

For the molecule `CC(C)C(C(=O)N(C)C(Cc1ccccc1)C(=O)N(C)C(C(=O)N(C)C(C(=O)N1CCCC1C(=O)OC(C)(C)C)C(C)C)C(C)C)N(C)C` (configuration not stated) (ξNMe2Val-[NMeF][NMeV][NMeV]P-OtBu; configuration not given here), the TGI in the test with SNB-19 CNS is over 100 µM; in the test on NCI-H522 lung it was 46.5 µM; in the test on OVCAR-8 ovarian, over 100 µM; with SW-620 colon it was over 100 µM; in the test with EKVX NSCLC it was over 100 µM; in the test with HT29 colon, over 100 µM. Further, the TGI with SN12C renal, in the test with UO-31 renal and in the test on KM12 colon was over 100 µM throughout.

Take `N#COc1ccc(Oc2ccc(OC#N)cc2)cc1`: the TGI in the test on SNB-19 CNS, in the test with NCI-H522 lung, in the test on OVCAR-8 ovarian, with EKVX NSCLC, with HT29 colon and in the test with SN12C renal was over 100 µM in each case. Moreover, the TGI in the test with U251 CNS, in the test on UO-31 renal and in the test on KM12 colon was over 100 µM each time.

As to `CC(=O)OCC1OC(n2c(=S)n(-c3ccccc3)c(=O)c3cc(Br)ccc32)C(OC(C)=O)C1OC(C)=O` (configuration not stated), the TGI in the test with SNB-19 CNS, with NCI-H522 lung, in the test on OVCAR-8 ovarian, in the test with SW-620 colon, in the test with EKVX NSCLC and with HT29 colon was over 100 µM in each case. In addition, the TGI in the test on SN12C renal, in the test with U251 CNS, in the test with UO-31 renal and in the test with KM12 colon was over 100 µM in each case.

Regarding `CCCCCCCCCCCC[N+]12CC[N+](C)(CC1)CC2`, the TGI is 38.7 µM in the test with SNB-19 CNS; 46 µM in the test with NCI-H522 lung; over 100 µM in the test on OVCAR-8 ovarian; over 100 µM in the test with SW-620 colon; over 100 µM in the test on EKVX NSCLC; 51.4 µM in the test with HT29 colon. Besides, the TGI was over 100 µM in the test with SN12C renal, 29.9 µM in the test on U251 CNS, over 100 µM with UO-31 renal and 20.7 µM in the test with KM12 colon.

As for `Brc1ccc(-c2cc3c(cc2C2SCCS2)OCO3)cc1`, the TGI is over 100 µM with SNB-19 CNS; 40.9 µM in the test with NCI-H522 lung; over 100 µM in the test with OVCAR-8 ovarian; over 100 µM in the test with SW-620 colon; 75.1 µM in the test with EKVX NSCLC; over 100 µM in the test with HT29 colon. The TGI in the test with SN12C renal is over 100 µM; in the test on U251 CNS, over 100 µM; in the test on UO-31 renal it was 90.4 µM; with KM12 colon, over 100 µM.

For the molecule `CN(C)CCC[N+]1=Nc2cccc3cccc(c23)N1`, the TGI with SNB-19 CNS was over 100 µM; in the test with NCI-H522 lung, 91.2 µM; in the test with OVCAR-8 ovarian it was over 100 µM; in the test on SW-620 colon it was 44.9 µM; with EKVX NSCLC it was over 100 µM; with HT29 colon, over 100 µM. In addition, the TGI with SN12C renal, in the test with U251 CNS, with UO-31 renal and with KM12 colon was over 100 µM throughout.

For the molecule `COc1ccc(C2=Nc3ccccc3N=C(SC)C2)cc1`, the TGI with SNB-19 CNS was over 100 µM; in the test with NCI-H522 lung, 63.2 µM; with OVCAR-8 ovarian it was over 100 µM; with SW-620 colon it was 41 µM; in the test with EKVX NSCLC, over 100 µM; in the test on HT29 colon, over 100 µM. Moreover, the TGI in the test with SN12C renal, with U251 CNS, in the test with UO-31 renal and in the test with KM12 colon was over 100 µM throughout.

For `O=C1Nc2ccc(Cl)c(I)c2C1=O`, the TGI stood at 80.5 µM in the test on SNB-19 CNS; 32 µM with NCI-H522 lung; 38.1 µM with OVCAR-8 ovarian; 36.9 µM with SW-620 colon; 20.8 µM in the test on EKVX NSCLC; 75.9 µM with HT29 colon. Also, the TGI with SN12C renal came out at 30.9 µM; in the test with U251 CNS, 31.2 µM; with UO-31 renal, 38.8 µM; in the test on KM12 colon it was 76.3 µM.

For the molecule `CCCCCCCCCCCCCS(=O)(=O)NCC(N)=O`, the TGI in the test on SNB-19 CNS, in the test on NCI-H522 lung, in the test on OVCAR-8 ovarian, with SW-620 colon, in the test with EKVX NSCLC and in the test with HT29 colon was over 100 µM each time. In addition, the TGI with SN12C renal, with U251 CNS, in the test on UO-31 renal and in the test on KM12 colon was over 100 µM each time.

With `CSC(C1c2ccccc2N(C)c2[nH]c(=O)n(C)c(=O)c21)S(=O)(=O)c1ccc(C)cc1` (configuration not stated), the TGI was over 100 µM with SNB-19 CNS; 46.6 µM with NCI-H522 lung; over 100 µM in the test on OVCAR-8 ovarian; over 100 µM in the test with SW-620 colon; over 100 µM in the test with EKVX NSCLC; over 100 µM in the test on HT29 colon. In addition, the TGI in the test on SN12C renal, in the test on U251 CNS and in the test on UO-31 renal was over 100 µM throughout.

In the case of `Cc1ccc(S(=O)(=O)NNS(C)(=O)=O)cc1`, the TGI with SNB-19 CNS, in the test with NCI-H522 lung, in the test with OVCAR-8 ovarian, in the test on SW-620 colon, in the test with EKVX NSCLC and in the test on HT29 colon was over 100 µM in each case. The TGI in the test with SN12C renal, in the test on U251 CNS, in the test with UO-31 renal and in the test on KM12 colon was over 100 µM in each case.

On to `Cc1ccc(Nc2nc(-c3ccc(-c4ccc([N+](=O)[O-])cc4)o3)cs2)cc1`, for which the TGI with SNB-19 CNS, with OVCAR-8 ovarian, with SW-620 colon, in the test on HT29 colon, with SN12C renal and in the test on U251 CNS was over 100 µM each time. Also, the TGI with UO-31 renal and in the test with KM12 colon was over 100 µM each time.

With `CC(C)C(C(=O)N(C)[C@H](C(=O)N1CCC[C@H]1C(=O)N(C)[C@@H](Cc1ccccc1)C(=O)OCc1ccccc1)C(C)C)N(C)C(=O)[C@@H](NC(=O)OC(C)(C)C)C(C)C` (some centres not stated) (Boc-V[ξNMeV][NMeV]P[NMeF]-OBn), the TGI is over 31.6 µM with SNB-19 CNS; over 100 µM in the test on NCI-H522 lung; over 31.6 µM in the test with OVCAR-8 ovarian; over 31.6 µM in the test on SW-620 colon; over 31.6 µM in the test on EKVX NSCLC; over 31.6 µM in the test on HT29 colon. Also, the values for the TGI with SN12C renal, with U251 CNS and with UO-31 renal were over 100 µM, over 31.6 µM and over 31.6 µM, respectively.

On to `CC(=O)OCC1OC(N=[N+]=[N-])C(OC(C)=O)C(OC(C)=O)C1OC1OC(COC(C)=O)C(OC(C)=O)C(OC(C)=O)C1OC(C)=O` (configuration not stated), for which the TGI with SNB-19 CNS, with NCI-H522 lung, in the test on OVCAR-8 ovarian, in the test on SW-620 colon, with EKVX NSCLC and in the test on HT29 colon was over 100 µM throughout. Moreover, the TGI in the test on SN12C renal, with U251 CNS, in the test with UO-31 renal and in the test with KM12 colon was over 100 µM each time.

In the case of `O=C1CC(c2ccccc2)n2c(nc3ccccc32)N1` (configuration not stated), the TGI in the test on SNB-19 CNS, in the test with NCI-H522 lung, in the test with OVCAR-8 ovarian, in the test with SW-620 colon, in the test with EKVX NSCLC and in the test with HT29 colon was over 100 µM in each case. The TGI in the test on U251 CNS, with UO-31 renal and in the test with KM12 colon was over 100 µM each time.

Regarding `COc1ccc([C@H]2CC3C(=O)N(c4ccc(OC)cc4)C(=O)C3c3[nH]c4ccccc4c32)cc1` (some centres not stated), the TGI in the test on SNB-19 CNS, in the test with NCI-H522 lung, with OVCAR-8 ovarian, in the test with SW-620 colon, in the test with EKVX NSCLC and with SN12C renal was over 100 µM each time. Further, the TGI in the test with U251 CNS, in the test with UO-31 renal and in the test on KM12 colon was over 100 µM in each case.
